Measured values published in article PMC2674222 (Biochemistry, 2009).
Where two headings read alike, the source gives them in different places.

Experiments:
Native PNP [1] = settings: read-out: Ki* (slow-onset tight binding constant); 50 mM KH2PO4, pH 7.4, 25 °C; cited from earlier work
F159W-Leuko-PNP [2] = target: T1, F159W-Leuko-PNP (Homo sapiens, UniProt P00491, F159W/W16Y/W178Y/W94Y); settings: relative to native and Leuko-PNP (Table 2)
T1 sequence (P00491 1-289 W16Y/W94Y/F159W/W178Y): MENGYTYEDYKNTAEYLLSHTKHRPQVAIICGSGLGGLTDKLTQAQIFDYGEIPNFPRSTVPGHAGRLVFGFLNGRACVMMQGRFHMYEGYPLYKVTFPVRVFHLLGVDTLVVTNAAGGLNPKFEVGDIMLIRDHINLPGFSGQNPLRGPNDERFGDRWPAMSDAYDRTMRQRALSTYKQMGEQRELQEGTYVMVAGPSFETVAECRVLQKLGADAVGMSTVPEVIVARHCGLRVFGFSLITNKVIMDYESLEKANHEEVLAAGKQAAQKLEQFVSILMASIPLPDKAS

Leuko-PNP [3] = settings: read-out: Ki* (slow-onset tight binding constant); 50 mM KH2PO4, pH 7.4, 25 °C; cited from earlier work
Native PNP [4] = settings: inosine as substrate; 50 mM KH2PO4, pH 7.4, 25 °C; cited from earlier work
F159W-Leuko-PNP [5] = target: T1, F159W-Leuko-PNP; assay: Steady state kinetics, xanthine oxidase coupled assay with inosine as substrate; type: biochemical
Leuko-PNP [6] = settings: inosine as substrate; 50 mM KH2PO4, pH 7.4, 25 °C; cited from earlier work
F159W-Leuko-PNP [7] = target: T1, F159W-Leuko-PNP; assay: Fluorometric titration of hypoxanthine-free enzyme with ligands; type: binding; settings: for Kd: pH 7.4, 25 °C
Leuko-PNP-PO4 [8] = settings: stopped-flow fluorometry; cited from earlier work
Leuko-PNP-PO4 [9] = settings: T-jump relaxation kinetics; cited from earlier work
F159W-Leuko-PNP-PO4 [10] = target: T2, F159W-Leuko-PNP-PO4 (Homo sapiens, UniProt P00491, F159W/W16Y/W178Y/W94Y); assay: biochemical
F159W-Leuko-PNP-PO4 [11] = target: T2, F159W-Leuko-PNP-PO4; settings: F159W-Leuko-PNP-Hx-PO4 system, 25 °C
[12] = substrate: OC[C@H]1O[C@@H](n2cnc3c(O)ncnc32)[C@H](O)[C@@H]1O; assay: Steady state kinetics, xanthine oxidase coupled assay with inosine as substrate; type: biochemical, human; settings: other: inosine as substrate, 50 mM KH2PO4, pH 7.4, 25 °C

In the case of “4'-deaza-1'-aza-2'-deoxy-1'-(9-methylene)-Immucillin-H [DADMe-ImmH]”, the Ki (Native PNP [1]) is given as 0.0085 ± 0.0003 nM, the “reduction of binding affinity to F159W-Leuko-PNP” value (F159W-Leuko-PNP [2]) is given as roughly 10 fold and the Ki (Leuko-PNP [3]) is given as 0.012 ± 0.003 nM.

In the case of `O=c1[nH]cnc2c1ncn2[C@@H]1O[C@H](CO)[C@@H](O)[C@H]1O` [Inosine, inosine], the Km (Native PNP [4]) is listed as 71 ± 8 µM, the kcat (Native PNP [4]) is listed as 44 ± 2 s⁻¹ and the “Km altered, F159W-Leuko-PNP vs native and Trp-free enzymes” value (F159W-Leuko-PNP [5]) is listed as roughly 7 fold. For the same molecule, the “kcat altered, F159W-Leuko-PNP vs native and Trp-free enzymes” value (F159W-Leuko-PNP [5]) was roughly 2 fold, the “overall catalytic efficiency reduced relative to native- and Leuko-PNPs” value (F159W-Leuko-PNP [5]) was roughly 14 fold and the Km (Leuko-PNP [6]) was 50 ± 3 µM. The kcat (Leuko-PNP [6]) was 36 ± 1 s⁻¹ and the “effect on fluorescence emission spectrum of the enzyme” value (F159W-Leuko-PNP [7]; up to ∼100 μM, absence or presence of inorganic sulfate (up to 3 mM)) was “does not alter the fluorescence emission spectrum”.

In the case of `Nc1nc2nc[nH]c2c(=O)[nH]1` [guanine], the koff (Leuko-PNP-PO4 [8]) is listed as 86 ± 8 s⁻¹, the kon (Leuko-PNP-PO4 [8]) is listed as 2.7 ± 0.1 × 10^7 M^−1s^−1 and the koff (Leuko-PNP-PO4 [9]) is listed as 142 ± 36 s⁻¹. The kon (Leuko-PNP-PO4 [9]) was 3.6 ± 0.2 × 10^7 M^−1s^−1.

For `O=c1[nH]cnc2nc[nH]c12` [hypoxanthine], the koff (F159W-Leuko-PNP-PO4 [10]; read-out: calculated dissociation rate (koff)) was 178 ± 8 s⁻¹, the kon (F159W-Leuko-PNP-PO4 [10]; read-out: rate of association (kon)) was 1.2e+07 M⁻¹ s⁻¹ and the k1 (F159W-Leuko-PNP-PO4 [11]) was “(1.2 ± 0.1) × 10^7 M^−1s^−1”. For the same molecule, the “k−1” value (F159W-Leuko-PNP-PO4 [11]) was 178 ± 8 s⁻¹, the Kd (F159W-Leuko-PNP [7]; absence of phosphate, 20 mM Tris-Cl) was 3300 ± 200 nM and the Kd (F159W-Leuko-PNP [7]; presence of phosphate (50 mM KH2PO4)) was 16000 ± 2000 nM. For the same molecule, the “decrease in fluorescence intensity upon titration” value (F159W-Leuko-PNP [7]; absence or presence of phosphate (50 mM KH2PO4), λex 295 nm) was 3 fold.

For Immucillin-H [ImmH], the Ki (Native PNP [1]) is given as 0.088 ± 0.003 nM, the “reduction of binding affinity to F159W-Leuko-PNP” value (F159W-Leuko-PNP [2]) is given as roughly 20 fold and the Ki (Leuko-PNP [3]) is given as 0.134 ± 0.012 nM.

B1: F159W-Leuko-PNP (Homo sapiens; F159W/W16Y/W178Y/W94Y) (protein)
chain: T1 sequence (P00491 1-289 W16Y/W94Y/F159W/W178Y)
B1 gave a Km [12] of 422 ± 30 µM, a kcat [12] of 22 ± 1 s⁻¹ and a kcat/Km [12] of 52000 ± 4000 M⁻¹ s⁻¹.
